Data: US12384808B2, “Modulators of TNF-α activity” (Forward Therapeutics, Inc., priority 2022, dated 2025)

Each compound was assayed against TNFα (Homo sapiens, UniProt P01375) (assay: TNFα Induced HEK Blue Cellular Assay). Settings: HEK Blue TNFα reporter cells, TNFα 100 pg/ml, 24 hrs at 37° C., secreted alkaline phosphatase (QUANTI-Blue) read at 620 nm; read-out: IC50 value.
Format: cell-based
Protocol: TNFα Induced HEK Blue Cellular Assay
Test articles were diluted in DMSO and serially diluted into 384 well assay plate (Corning 3765), at final concentrations ranging from […] to 0.5 nM. HEK Blue™ TNFα reporter cells were added at a final density of 10,000 cell per well in assay media [DMEM (Gibco, cat #21063-029), 10% fetal bovine serum (ExcelBio, cat #FND500), 1% Penicillin-Streptomycin (Solarbio, cat #P1400-100]. TNFα (R&D 210-TA-020/CF) was then added to the assay plate at a final concentration of 100 pg/ml. This plate was then incubated for 24 hrs at 37° C. and 5% CO2. Secreted alkaline phosphatase expression was then measured using QUANTI-Blue™ (Invivogen), according to manufacturer instructions and read on an Envision microplate reader at 620 nm.
Inhibition data for test compound over a range of concentration was plotted as percentage inhibition of the test compound (100%=maximum inhibition). IC50 values were determined after correcting for background [(sample read−mean of low control)/(mean of high control−mean of low control)] where by the low control is DMSO without stimulation and high control is DMSO with stimulation. The IC50 is defined as the concentration of test compound which produces 50% inhibition and was quantified using the 4 parameter logistic equation to fit the data.

TNFα, sequence (P01375 77-233 limits assumed): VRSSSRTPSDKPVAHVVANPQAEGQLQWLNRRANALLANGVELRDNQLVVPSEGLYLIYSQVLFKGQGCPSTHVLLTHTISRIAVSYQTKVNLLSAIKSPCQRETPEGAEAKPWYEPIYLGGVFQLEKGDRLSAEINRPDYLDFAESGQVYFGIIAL

| Structure (SMILES) | IC50 [nM] |
| --- | --- |
| [2H]C([2H])([2H])N1C(=O)c2cccc(OC(F)F)c2[C@H]2C[C@@H]1c1nc3ccc(-c4ccc(C(C)P(C)(C)=O)cc4)cc3n12 (single isomer, unassigned) [Example 85, (7R,14R)-1-(difluoromethoxy)-11-(4-((S or R)-1-(dimethylphosphoryl)ethyl)phenyl)-6-(methyl-d3)-6,7-dihydro-7,14-methanobenzo[f]benzo[4,5]imidazo[1,2-a][1,4]diazocin-5(14H)-one] | < 100 |
| CP(C)(=O)c1ncc(-c2ccc3nc4n(c3c2)[C@@H]2C[C@H]4NC(=O)c3cccc(OC(F)F)c32)cn1 [Example 1, (7R,14R)-1-(difluoromethoxy)-11-(2-(dimethylphosphoryl)pyrimidin-5-yl)-6,7-dihydro-7,14-methanobenzo[f]benzo[4,5]imidazo[1,2-a][1,4]diazocin-5(14H)-one] | 100 to 1000 |
| CN1C(=O)c2cccc(OC(F)F)c2[C@H]2C[C@@H]1c1nc3ccc(-c4ccc(P(C)(C)=O)nc4)cc3n12 [Example 2, (7R,14R)-1-(difluoromethoxy)-11-(6-(dimethylphosphoryl)pyridin-3-yl)-6-methyl-6,7-dihydro-7,14-methanobenzo[f]benzo[4,5]imidazo[1,2-a][1,4]diazocin-5(14H)-one] | < 100 |
| CP(C)(=O)c1ccc(-c2ccc3nc4n(c3c2)[C@@H]2C[C@H]4NC(=O)c3cccc(OC(F)F)c32)cn1 [Example 3, (7R,14R)-1-(difluoromethoxy)-11-(6-(dimethylphosphoryl)pyridin-3-yl)-6,7-dihydro-7,14-methanobenzo[f]benzo[4,5]imidazo[1,2-a][1,4]diazocin-5(14H)-one] | 100 to 1000 |
| CN1C(=O)c2cccc(OC(F)F)c2[C@H]2C[C@@H]1c1nc3ccc(-c4cnc(P(C)(C)=O)c(F)c4)cc3n12 [Example 4, (7R,14R)-1-(difluoromethoxy)-11-(6-(dimethylphosphoryl)-5-fluoropyridin-3-yl)-6-methyl-6,7-dihydro-7,14-methanobenzo[f]benzo[4,5]imidazo[1,2-a][1,4]diazocin-5(14H)-one] | < 100 |
| CN1C(=O)c2cccc(OC(F)F)c2[C@H]2C[C@@H]1c1nc3ccc(-c4ccc(P5(=O)CCCC5)nc4)cc3n12 [Example 5, (1R,11R)-18-(difluoromethoxy)-12-methyl-5-[6-(1-oxo-1lambda5-phospholan-1-yl)pyridin-3-yl]-2,9,12-triazapentacyclo[9.8.1.0^{2,10}.0^{3,8}.0^{14,19}]icosa-3(8),4,6,9,14(19),15,17-heptaen-13-one] | < 100 |
| CN1C(=O)c2cccc(OC(F)F)c2[C@H]2C[C@@H]1c1nc3ccc(-c4ccc(P5(=O)CCOCC5)nc4)cc3n12 [Example 6, (1R,11R)-18-(difluoromethoxy)-12-methyl-5-[6-(4-oxo-1,4lambda5-oxaphosphinan-4-yl)pyridin-3-yl]-2,9,12-triazapentacyclo[9.8.1.0^{2,10}.0^{3,8}.0^{14,19}]icosa-3(8),4,6,9,14(19),15,17-heptaen-13-one] | < 100 |
| CN1C(=O)c2cccc(OC(F)F)c2[C@H]2C[C@@H]1c1nc3ccc(-c4ccc(OCP(C)(C)=O)nc4)cc3n12 [Example 7, (1R,11R)-18-(difluoromethoxy)-5-{6-[(dimethylphosphoryl)methoxy]pyridin-3-yl}-12-methyl-2,9,12-triazapentacyclo[9.8.1.0^{2,10}.0^{3,8}.0^{14,19}]icosa-3(8),4,6,9,14(19),15,17-heptaen-13-one] | < 100 |

Second part, the compound after the results:

| IC50 [nM] | Structure (SMILES) |
| --- | --- |
| < 100 | [2H]C([2H])([2H])N1C(=O)c2cccc(OC(F)F)c2[C@H]2C[C@@H]1c1nc3ccc(-c4ccc(C(C)P(C)(C)=O)cc4)cc3n12 (single isomer, unassigned) [Example 86, (7R,14R)-1-(difluoromethoxy)-11-(4-((R or S)-1-(dimethylphosphoryl)ethyl)phenyl)-6-(methyl-d3)-6,7-dihydro-7,14-methanobenzo[f]benzo[4,5]imidazo[1,2-a][1,4]diazocin-5(14H)-one] |
| < 100 | [2H]C([2H])([2H])N1C(=O)c2cccc(OC(F)F)c2[C@H]2C[C@@H]1c1nc3ccc(-c4ccc(C(C)P(C)(C)=O)c(F)c4)cc3n12 (single isomer, unassigned) [Example 99, (7R,14R)-1-(difluoromethoxy)-11-(4-((S or R)-1-(dimethylphosphoryl)ethyl)-3-fluorophenyl)-6-(methyl-d3)-6,7-dihydro-7,14-methanobenzo[f]benzo[4,5]imidazo[1,2-a][1,4]diazocin-5(14H)-one] |
| < 100 | [2H]C([2H])([2H])N1C(=O)c2cccc(OC(F)F)c2[C@H]2C[C@@H]1c1nc3ccc(-c4ccc(C(C)P(C)(C)=O)c(F)c4)cc3n12 (single isomer, unassigned) [Example 100, (7R,14R)-1-(difluoromethoxy)-11-(4-((R or S)-1-(dimethylphosphoryl)ethyl)-3-fluorophenyl)-6-(methyl-d3)-6,7-dihydro-7,14-methanobenzo[f]benzo[4,5]imidazo[1,2-a][1,4]diazocin-5(14H)-one] |
| < 100 | [2H]C([2H])([2H])N1C(=O)c2cccc(OC(F)F)c2[C@H]2C[C@@H]1c1nc3ccc(-c4cc(F)c(C(C)P(C)(C)=O)c(F)c4)cc3n12 (single isomer, unassigned) [Example 109, (7R,14R)-1-(difluoromethoxy)-11-(4-((R or S)-1-(dimethylphosphoryl)ethyl)-3,5-difluorophenyl)-6-(methyl-d3)-6,7-dihydro-7,14-methanobenzo[f]benzo[4,5]imidazo[1,2-a][1,4]diazocin-5(14H)-one] |
| < 100 | [2H]C([2H])([2H])N1C(=O)c2cccc(OC(F)F)c2[C@H]2C[C@@H]1c1nc3ccc(-c4ccc(C(C)(O)P(C)(C)=O)cc4)cc3n12 (single isomer, unassigned) [Example 110, (7R,14R)-1-(difluoromethoxy)-11-(4-((S or R)-1-(dimethylphosphoryl)-1-hydroxyethyl)phenyl)-6-(methyl-d3)-6,7-dihydro-7,14-methanobenzo[f]benzo[4,5]imidazo[1,2-a][1,4]diazocin-5(14H)-one] |
| < 100 | [2H]C([2H])([2H])N1C(=O)c2cccc(OC(F)F)c2[C@H]2C[C@@H]1c1nc3ccc(-c4ccc([C@@](C)(O)P(C)(C)=O)cc4)cc3n12 (single isomer, unassigned) [Example 111, (7R,14R)-1-(difluoromethoxy)-11-(4-((R or S)-1-(dimethylphosphoryl)-1-hydroxyethyl)phenyl)-6-(methyl-d3)-6,7-dihydro-7,14-methanobenzo[f]benzo[4,5]imidazo[1,2-a][1,4]diazocin-5(14H)-one] |
| < 100 | [2H]C([2H])([2H])N1C(=O)c2cccc(OC(F)F)c2[C@H]2C[C@@H]1c1nc3ccc(-c4cc(F)c(C(C)P(C)(C)=O)c(F)c4)cc3n12 (single isomer, unassigned) [Example 112, (7R,14R)-1-(difluoromethoxy)-11-(4-((S or R)-1-(dimethylphosphoryl)ethyl)-3,5-difluorophenyl)-6-(methyl-d3)-6,7-dihydro-7,14-methanobenzo[f]benzo[4,5]imidazo[1,2-a][1,4]diazocin-5(14H)-one] |
| < 100 | [2H]C([2H])([2H])N1C(=O)c2cccc(OC(F)F)c2[C@H]2C[C@@H]1c1nc3ccc(-c4ccc([C@@H](C)P(C)(C)=O)c(F)c4C)cc3n12 (single isomer, unassigned) [Example 113, (7R,14R)-1-(difluoromethoxy)-11-(4-((R or S)-1-(dimethylphosphoryl)ethyl)-3-fluoro-2-methylphenyl)-6-(methyl-d3)-6,7-dihydro-7,14-methanobenzo[f]benzo[4,5]imidazo[1,2-a][1,4]diazocin-5(14H)-one] |
| < 100 | [2H]C([2H])([2H])N1C(=O)c2cccc(OC(F)F)c2[C@H]2C[C@@H]1c1nc3ccc(-c4ccc([C@H](C)P(C)(C)=O)c(F)c4C)cc3n12 (single isomer, unassigned) [Example 114, (7R,14R)-1-(difluoromethoxy)-11-(4-((S or R)-1-(dimethylphosphoryl)ethyl)-3-fluoro-2-methylphenyl)-6-(methyl-d3)-6,7-dihydro-7,14-methanobenzo[f]benzo[4,5]imidazo[1,2-a][1,4]diazocin-5(14H)-one] |
| < 100 | [2H]C([2H])([2H])N1C(=O)c2cccc(OC(F)F)c2[C@H]2C[C@@H]1c1nc3ccc(-c4cc(F)c(C(C)P(C)(C)=O)cc4C)cc3n12 (single isomer, unassigned) [Example 118, (7R,14R)-1-(difluoromethoxy)-11-(4-((R or S)-1-(dimethylphosphoryl)ethyl)-5-fluoro-2-methylphenyl)-6-(methyl-d3)-6,7-dihydro-7,14-methanobenzo[f]benzo[4,5]imidazo[1,2-a][1,4]diazocin-5(14H)-one] |
| < 100 | [2H]C([2H])([2H])N1C(=O)c2cccc(OC(F)F)c2[C@H]2C[C@@H]1c1nc3ccc(-c4cc(F)c(C(C)P(C)(C)=O)cc4C)cc3n12 (single isomer, unassigned) [Example 119, (7R,14R)-1-(difluoromethoxy)-11-(4-((S or R)-1-(dimethylphosphoryl)ethyl)-5-fluoro-2-methylphenyl)-6-(methyl-d3)-6,7-dihydro-7,14-methanobenzo[f]benzo[4,5]imidazo[1,2-a][1,4]diazocin-5(14H)-one] |
